Experimental data published in patent publication US20080177067A1, “Crystal forms of 9-hydroxy-risperidone (paliperidone)” (priority 2006, published 2008).

Experiments:
[1] = Weight loss measured by TGA; assay type: physicochemical
[2] = Water content measured by KF titration; assay type: physicochemical

| Structure (SMILES) | weight loss, as measured by TGA ([1]; between 25-168° C.) | water content, as measured by KF titration [2] | weight loss, as measured by TGA ([1]; between 25-155° C.) | weight loss, as measured by TGA ([1]; between 25-145° C.) |
| --- | --- | --- | --- | --- |
| Cc1nc2n(c(=O)c1CCN1CCC(c3noc4cc(F)ccc34)CC1)CCCC2O (centres unmarked) [Form III, 3-[2-[4-(6-fluorobenzo[d]isoxazol-3-yl)-1-piperidyl]ethyl]-7-hydroxy-4-methyl-1,5-diazabicyclo[4.4.0]deca-3,5-dien-2-one] | about 19.2% | about 0.2% |  |  |
| Cc1nc2n(c(=O)c1CCN1CCC(c3noc4cc(F)ccc34)CC1)CCCC2O (centres unmarked) [Form V, 3-[2-[4-(6-fluorobenzo[d]isoxazol-3-yl)-1-piperidyl]ethyl]-7-hydroxy-4-methyl-1,5-diazabicyclo[4.4.0]deca-3,5-dien-2-one] |  | about 0.3% | about 0.1% |  |
| Cc1nc2n(c(=O)c1CCN1CCC(c3noc4cc(F)ccc34)CC1)CCCC2O (centres unmarked) [Form II, 3-[2-[4-(6-fluorobenzo[d]isoxazol-3-yl)-1-piperidyl]ethyl]-7-hydroxy-4-methyl-1,5-diazabicyclo[4.4.0]deca-3,5-dien-2-one] |  | about 0.5% |  | about 0.4% |
| Cc1nc2n(c(=O)c1CCN1CCC(c3noc4cc(F)ccc34)CC1)CCCC2O (centres unmarked) [Form I, 3-[2-[4-(6-fluorobenzo[d]isoxazol-3-yl)-1-piperidyl]ethyl]-7-hydroxy-4-methyl-1,5-diazabicyclo[4.4.0]deca-3,5-dien-2-one] | about 0.6% | about 0.5% |  |  |
